Results on 33 molecules are retold here after US20210317134A1, “UBIQUITIN-SPECIFIC-PROCESSING PROTEASE 7 (USP7) MODULATORS AND USES THEREOF” (RAPT THERAPEUTICS, INC., priority 2019, published 2021).

Each structure is given as a SMILES string.

The IC50 is the concentration that inhibits the measured activity by half.

Sequence of USP7 (Q93009 whole entry): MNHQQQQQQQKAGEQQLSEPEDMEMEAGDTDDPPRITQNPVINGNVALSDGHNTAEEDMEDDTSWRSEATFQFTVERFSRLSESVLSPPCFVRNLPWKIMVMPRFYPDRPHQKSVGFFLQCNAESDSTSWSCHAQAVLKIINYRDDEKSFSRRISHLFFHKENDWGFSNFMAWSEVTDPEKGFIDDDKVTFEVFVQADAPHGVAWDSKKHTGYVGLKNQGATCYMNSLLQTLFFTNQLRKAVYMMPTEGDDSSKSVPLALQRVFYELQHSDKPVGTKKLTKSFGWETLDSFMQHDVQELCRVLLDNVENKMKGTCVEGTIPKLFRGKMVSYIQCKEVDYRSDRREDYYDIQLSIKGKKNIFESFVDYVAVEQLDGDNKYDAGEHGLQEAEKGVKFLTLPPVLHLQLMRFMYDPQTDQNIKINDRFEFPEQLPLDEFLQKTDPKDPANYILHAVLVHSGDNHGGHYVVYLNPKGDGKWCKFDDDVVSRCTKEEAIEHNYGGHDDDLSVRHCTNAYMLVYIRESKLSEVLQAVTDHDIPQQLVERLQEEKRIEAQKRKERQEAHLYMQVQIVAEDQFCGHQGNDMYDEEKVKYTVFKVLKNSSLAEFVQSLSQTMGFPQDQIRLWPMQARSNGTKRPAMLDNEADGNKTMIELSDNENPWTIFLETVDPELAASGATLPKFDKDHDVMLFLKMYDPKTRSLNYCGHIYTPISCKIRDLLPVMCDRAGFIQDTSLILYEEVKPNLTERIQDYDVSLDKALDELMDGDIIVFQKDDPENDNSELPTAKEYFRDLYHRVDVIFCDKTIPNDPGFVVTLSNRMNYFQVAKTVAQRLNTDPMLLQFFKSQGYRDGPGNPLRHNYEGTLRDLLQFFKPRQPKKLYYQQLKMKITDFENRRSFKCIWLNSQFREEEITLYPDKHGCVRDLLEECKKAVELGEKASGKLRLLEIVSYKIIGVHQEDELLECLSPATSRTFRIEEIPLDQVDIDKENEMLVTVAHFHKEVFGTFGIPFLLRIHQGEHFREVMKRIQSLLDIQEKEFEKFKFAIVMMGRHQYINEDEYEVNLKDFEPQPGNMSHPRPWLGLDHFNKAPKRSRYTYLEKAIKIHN

This experiment has as its target USP7 (Homo sapiens, UniProt Q93009). Nature of the experiment: USP7 inhibitory potency (Table 1). The format is biochemical.
`O=C([C@H]1Cc2cc(Cl)cc(-c3ccnc4cc(CCO)sc34)c2O1)N1CCNCC1` [(R)-(5-chloro-7-(2-(2-hydroxyethyl)thieno[3,2-b]pyridin-7-yl)-2,3-dihydrobenzofuran-2-yl)(piperazin-1-yl)methanone] returned an IC50 below 1000 nM.
With `O=C([C@H]1Cc2cc(Cl)cc(-c3ccnc4cc(C5(O)COC5)sc34)c2O1)N1CCNCC1` [(R)-(5-chloro-7-(2-(3-hydroxyoxetan-3-yl)thieno[3,2-b]pyridin-7-yl)-2,3-dihydrobenzofuran-2-yl)(piperazin-1-yl)methanone] the figure was below 1000 nM; with `O=C([C@H]1Cc2cc(Cl)cc(-c3ccnc4cc(CN5CCCCS5(=O)=O)sc34)c2O1)N1CCNCC1` [(R)-(5-chloro-7-(2-((1,1-dioxido-1,2-thiazinan-2-yl)methyl)thieno[3,2-b]pyridin-7-yl)-2,3-dihydrobenzofuran-2-yl)(piperazin-1-yl)methanone], below 1000 nM.
The figure for `O=C([C@H]1Cc2cc(Cl)cc(-c3ccnc4cc(CO)oc34)c2O1)N1CCNCC1` [(R)-(5-chloro-7-(2-(hydroxymethyl)furo[3,2-b]pyridin-7-yl)-2,3-dihydrobenzofuran-2-yl)(piperazin-1-yl)methanone] is below 1000 nM.
With `O=C([C@H]1Cc2cc(Cl)cc(-c3ccnc4cc(CO)sc34)c2O1)N1CCn2nc(C(F)(F)F)nc2C1` [(R)-(5-chloro-7-(2-(hydroxymethyl)thieno[3,2-b]pyridin-7-yl)-2,3-dihydrobenzofuran-2-yl)(2-(trifluoromethyl)-5,6-dihydro-[1,2,4]triazolo[1,5-a]pyrazin-7(8H)-yl)methanone] the figure was 1000 to 10000 nM.
The molecule `CN(C)C1CN(C(=O)[C@H]2Cc3cc(Cl)cc(-c4ccnc5cc(CO)sc45)c3O2)C1` [(R)-(5-chloro-7-(2-(hydroxymethyl)thieno[3,2-b]pyridin-7-yl)-2,3-dihydrobenzofuran-2-yl)(3-(dimethylamino)azetidin-1-yl)methanone] had an IC50 below 1000 nM.
In the case of `O=C([C@H]1Cc2cc(Cl)cc(-c3ccnc4cc(CO)sc34)c2O1)N1CCn2c(nnc2C(F)(F)F)C1` [(R)-(5-chloro-7-(2-(hydroxymethyl)thieno[3,2-b]pyridin-7-yl)-2,3-dihydrobenzofuran-2-yl)(3-(trifluoromethyl)-5,6-dihydro-[1,2,4]triazolo[4,3-a]pyrazin-7(8H)-yl)methanone], the IC50 fell in the range of 1000 to 10000 nM.
With `Cc1nnc2n1CCN(C(=O)[C@H]1Cc3cc(Cl)cc(-c4ccnc5cc(CO)sc45)c3O1)C2` [(R)-(5-chloro-7-(2-(hydroxymethyl)thieno[3,2-b]pyridin-7-yl)-2,3-dihydrobenzofuran-2-yl)(3-methyl-5,6-dihydro-[1,2,4]triazolo[4,3-a]pyrazin-7(8H)-yl)methanone] the figure was 1000 to 10000 nM.
The figure for `CN(C)C1CCN(C(=O)[C@H]2Cc3cc(Cl)cc(-c4ccnc5cc(CO)sc45)c3O2)CC1` [(R)-(5-chloro-7-(2-(hydroxymethyl)thieno[3,2-b]pyridin-7-yl)-2,3-dihydrobenzofuran-2-yl)(4-(dimethylamino)piperidin-1-yl)methanone] is below 1000 nM.
For the molecule `CNC1CCN(C(=O)[C@H]2Cc3cc(Cl)cc(-c4ccnc5cc(CO)sc45)c3O2)CC1` [(R)-(5-chloro-7-(2-(hydroxymethyl)thieno[3,2-b]pyridin-7-yl)-2,3-dihydrobenzofuran-2-yl)(4-(methylamino)piperidin-1-yl)methanone], the IC50 is below 1000 nM.
For `O=C([C@H]1Cc2cc(Cl)cc(-c3ccnc4cc(CO)sc34)c2O1)N1CCC(N2CCCC2)CC1` [(R)-(5-chloro-7-(2-(hydroxymethyl)thieno[3,2-b]pyridin-7-yl)-2,3-dihydrobenzofuran-2-yl)(4-(pyrrolidin-1-yl)piperidin-1-yl)methanone], the IC50 is below 1000 nM.
The figure for `O=C([C@H]1Cc2cc(Cl)cc(-c3ccnc4cc(CO)sc34)c2O1)N1CCn2cnnc2C1` [(R)-(5-chloro-7-(2-(hydroxymethyl)thieno[3,2-b]pyridin-7-yl)-2,3-dihydrobenzofuran-2-yl)(5,6-dihydro-[1,2,4]triazolo[4,3-a]pyrazin-7(8H)-yl)methanone] is 1000 to 10000 nM.
On to `O=C([C@H]1Cc2cc(Cl)cc(-c3ccnc4cc(CO)sc34)c2O1)N1CCn2ccnc2C1` [(R)-(5-chloro-7-(2-(hydroxymethyl)thieno[3,2-b]pyridin-7-yl)-2,3-dihydrobenzofuran-2-yl)(5,6-dihydroimidazo[1,2-a]pyrazin-7(8H)-yl)methanone], for which the IC50 was below 1000 nM.
The figure for `O=C([C@H]1Cc2cc(Cl)cc(-c3ccnc4cc(CO)sc34)c2O1)N1CCNCC1` [(R)-(5-chloro-7-(2-(hydroxymethyl)thieno[3,2-b]pyridin-7-yl)-2,3-dihydrobenzofuran-2-yl)(piperazin-1-yl)methanone] is below 1000 nM.
With `O=C([C@H]1Cc2cc(Cl)cc(-c3ccnc4c3CCC4)c2O1)N1CCNCC1` [(R)-(5-chloro-7-(6,7-dihydro-5H-cyclopenta[b]pyridin-4-yl)-2,3-dihydrobenzofuran-2-yl)(piperazin-1-yl)methanone] the figure was below 1000 nM.
With `Cc1cc2ncnc(-c3cc(Cl)cc4c3O[C@@H](C(=O)N3CCNCC3)C4)c2s1` [(R)-(5-chloro-7-(6-methylthieno[3,2-d]pyrimidin-4-yl)-2,3-dihydrobenzofuran-2-yl)(piperazin-1-yl)methanone] the figure was below 1000 nM; with `O=C([C@H]1Cc2cc(Cl)cc(-c3ccnc4occc34)c2O1)N1CCNCC1` [(R)-(5-chloro-7-(furo[2,3-b]pyridin-4-yl)-2,3-dihydrobenzofuran-2-yl)(piperazin-1-yl)methanone], 1000 to 10000 nM; with `O=C([C@H]1Cc2cc(Cl)cc(-c3ccnc4ccoc34)c2O1)N1CCNCC1` [(R)-(5-chloro-7-(furo[3,2-b]pyridin-7-yl)-2,3-dihydrobenzofuran-2-yl)(piperazin-1-yl)methanone], below 1000 nM.
Molecule `O=C([C@H]1Cc2cc(Cl)cc(-c3ncnc4ccoc34)c2O1)N1CCNCC1` [(R)-(5-chloro-7-(furo[3,2-d]pyrimidin-4-yl)-2,3-dihydrobenzofuran-2-yl)(piperazin-1-yl)methanone] had a half-maximal inhibitory concentration (IC50) of 10000 to 30000 nM.
`O=C([C@H]1Cc2cc(Cl)cc(-c3ccnc4sccc34)c2O1)N1CCNCC1` [(R)-(5-chloro-7-(thieno[2,3-b]pyridin-4-yl)-2,3-dihydrobenzofuran-2-yl)(piperazin-1-yl)methanone] yielded an IC50 of 1000 to 10000 nM.
With `CN(C)C1CN(C(=O)[C@H]2Cc3cc(Cl)cc(-c4ccnc5ccsc45)c3O2)C1` [(R)-(5-chloro-7-(thieno[3,2-b]pyridin-7-yl)-2,3-dihydrobenzofuran-2-yl)(3-(dimethylamino)azetidin-1-yl)methanone] the figure was below 1000 nM; with `CN(C)C1CCN(C(=O)[C@H]2Cc3cc(Cl)cc(-c4ccnc5ccsc45)c3O2)CC1` [(R)-(5-chloro-7-(thieno[3,2-b]pyridin-7-yl)-2,3-dihydrobenzofuran-2-yl)(4-(dimethylamino)piperidin-1-yl)methanone], below 1000 nM; with `CNC1CCN(C(=O)[C@H]2Cc3cc(Cl)cc(-c4ccnc5ccsc45)c3O2)CC1` [(R)-(5-chloro-7-(thieno[3,2-b]pyridin-7-yl)-2,3-dihydrobenzofuran-2-yl)(4-(methylamino)piperidin-1-yl)methanone], below 1000 nM.
In turn, `O=C([C@H]1Cc2cc(Cl)cc(-c3ccnc4ccsc34)c2O1)N1CCC(N2CCCC2)CC1` [(R)-(5-chloro-7-(thieno[3,2-b]pyridin-7-yl)-2,3-dihydrobenzofuran-2-yl)(4-(pyrrolidin-1-yl)piperidin-1-yl)methanone] showed an IC50 below 1000 nM.
`O=C([C@H]1Cc2cc(Cl)cc(-c3ccnc4ccsc34)c2O1)N1CCNCC1` [(R)-(5-chloro-7-(thieno[3,2-b]pyridin-7-yl)-2,3-dihydrobenzofuran-2-yl)(piperazin-1-yl)methanone] returned an IC50 below 1000 nM.
`O=C([C@H]1CCc2cc(Cl)cc(-c3ccnc4cc(CO)sc34)c2O1)N1CCNCC1` [(R)-(6-chloro-8-(2-(hydroxymethyl)thieno[3,2-b]pyridin-7-yl)chroman-2-yl)(piperazin-1-yl)methanone] returned an IC50 below 1000 nM.
Take `NCc1cc2nccc(-c3cc(Cl)cc4c3O[C@@H](C(=O)N3CCNCC3)C4)c2s1` [(R)-(7-(2-(aminomethyl)thieno[3,2-b]pyridin-7-yl)-5-chloro-2,3-dihydrobenzofuran-2-yl)(piperazin-1-yl)methanone]: the 50% inhibitory concentration (IC50) is below 1000 nM.
With `Cn1nc2c(c1[C@H]1Cc3cc(Cl)cc(-c4ccnc5cc(CO)sc45)c3O1)CNCC2` [(R)-(7-(5-chloro-2-(2-methyl-4,5,6,7-tetrahydro-2H-pyrazolo[4,3-c]pyridin-3-yl)-2,3-dihydrobenzofuran-7-yl)thieno[3,2-b]pyridin-2-yl)methanol] the figure was below 1000 nM.
For the molecule `CCN1CCc2noc([C@H]3Cc4cc(Cl)cc(-c5ccnc6cc(CO)sc56)c4O3)c2C1` [(R)-(7-(5-chloro-2-(5-ethyl-4,5,6,7-tetrahydroisoxazolo[4,3-c]pyridin-3-yl)-2,3-dihydrobenzofuran-7-yl)thieno[3,2-b]pyridin-2-yl)methanol], the IC50 was below 1000 nM.
The molecule `CN1CCc2noc([C@H]3Cc4cc(Cl)cc(-c5ccnc6cc(CO)sc56)c4O3)c2C1` [(R)-(7-(5-chloro-2-(5-methyl-4,5,6,7-tetrahydroisoxazolo[4,3-c]pyridin-3-yl)-2,3-dihydrobenzofuran-7-yl)thieno[3,2-b]pyridin-2-yl)methanol] returned an IC50 below 1000 nM.
With `OCc1cc2nccc(-c3cc(Cl)cc4c3O[C@@H](c3onc5c3CNCC5)CC4)c2s1` [(R)-(7-(6-chloro-2-(4,5,6,7-tetrahydroisoxazolo[4,3-c]pyridin-3-yl)chroman-8-yl)thieno[3,2-b]pyridin-2-yl)methanol] the figure was below 1000 nM.
With `CC(=O)NCCc1cc2nccc(-c3cc(Cl)cc4c3O[C@@H](C(=O)N3CCNCC3)C4)c2s1` [(R)-N-(2-(7-(5-chloro-2-(piperazine-1-carbonyl)-2,3-dihydrobenzofuran-7-yl)thieno[3,2-b]pyridin-2-yl)ethyl)acetamide] the figure was below 1000 nM; with `O=C([C@H]1Cc2cc(Cl)cc(-c3ccnc4cc(CCNS(=O)(=O)c5ccccc5)sc34)c2O1)N1CCNCC1` [(R)-N-(2-(7-(5-chloro-2-(piperazine-1-carbonyl)-2,3-dihydrobenzofuran-7-yl)thieno[3,2-b]pyridin-2-yl)ethyl)benzenesulfonamide], below 1000 nM.
